According to patent US4456593A, “Ristocetin .psi.-aglycone as an antibacterial agent” (Abbott Laboratories, priority 1982, dated 1984):
“And” between values parts separate entries of the source, which are not always exact repeats. Equal entries are not always repeated.

Columns and labels:
[1] = test system: S. aureus; assay: Anti-infective Test - Cure of Acute Mouse Bacterial Infection (mouse protection), S. aureus; type: in vivo; conditions: for CD50 (curative dose50, total dose required to cure half the animals): dosed 1 and 5 hours post-infection, 95 percent confidence limits in brackets
Protocol: (§1) Anti-infective Test--Cure of Acute Mouse Bacterial Infection
(§2) To determine the ability of potential anti-microbial agents to cure mice of an otherwise lethal infection.
Bacterial strains used in this test have been previously tested and, if necessary, adapted to mice and are maintained on brain heart infusion (BHI) agar slants at 4° C. Tubes of BHI broth are inoculated from the slants and incubated for 18 hours at 37° C. Serial ten-fold dilutions of this culture are made in BHI broth. The bacterial suspensions used to infect mice are obtained by making the final ten-fold dilution in 5 percent aqueous hog gastric mucin (American Laboratories Incorporated). Mice are infected by an intraperitoneal injection of 0.75 ml. of the resulting suspension. The dilution of test organism selected (standard inoculum) is based on prior experience with that organism and is usually 10-100-fold more concentrated than the LD50 dilution, i.e., that concentration which when administered as described above causes 50 percent mortalities.
The antimicrobial test substance is dissolved at the desired concentration in a suitable vehicle (sterile water, unless otherwise specified) and four serial, two-fold dilutions of this solution are made with the vehicle.
In dosing the animals, all mice are considered to weigh 20 grams. The volume administered is always 0.5 ml. at 1 and 5 hours post-infection (total of 1.0 ml.), with half of the total dose given at each time.
Administration of Test Substances:
The test substance may be administered by any of the following routes:
2. Subcutaneously, at the nape of the neck,
3. Intramuscularly in the thigh,
4. Intravenously in the tail vein.
Female Swiss albino mice weighing 18 to 20 grams are divided randomly into groups of ten animals and housed one group to a cage. Food (standard mouse pellets) and water are supplied ad lib throughout the test. All animals are sacrificed at the conclusion of the test.
Group T0 is neither infected nor treated, but is observed for seven days. If more than one mortality occurs in this group, the data will be reviewed to determine is there is cause to invalidate the test.
Groups T1 through T4 are used to monitor the strength of the infection actually used in this experiment. These groups are infected but untreated. Group T1 is infected with the standard inoculum, and groups T2 through T4 are infected with successive ten-fold dilutions of the organism prepared such that only the final dilution in each case is made with 5 percent aqueous hog gastric mucin. These groups are observed for seven days, mortalities are recorded and used to determine the number of challenge LD50's (within ten-fold limits) present in the standard inoculum used to infect medicated groups of animals.
Groups T5 through T9 are infected intraperitoneally with the standard inoculum. Each group is treated with one of the two-fold dilutions of the test substance by a specified route of administration at 1 hour and 5 hours post infection. The animals are observed for seven days and mortalities are recorded.
Further sets of five groups of animals are infected and treated in the same manner as groups T5 through T9 for each additional test substance studied.
CD50's (the total dose, in mg./kg., required to cure half the animals) are calculated by standard statistical methods and are reported with 95 percent confidence limits where these are obtainable or annotated with PS (poor slope) where they are not.
This test is performed in primary and secondary variations. […]

[2] = test system: E. coli (J); assay: Anti-infective Test - Cure of Acute Mouse Bacterial Infection (mouse protection), E. coli; type: in vivo; conditions: E. coli (J) intraperitoneal infection in female Swiss albino mice; route I.V.; dosed 1 and 5 hours post-infection; observed seven days
Protocol: as §1, §2
Bacterial strains used in this test have been previously tested and, if necessary, adapted to mice and are maintained on brain heart infusion (BHI) agar slants at 4° C. Tubes of BHI broth are inoculated from the slants and incubated for 18 hours at 37° C. Serial ten-fold dilutions of this culture are made in BHI broth. The bacterial suspensions used to infect mice are obtained by making the final ten-fold dilution in 5 percent aqueous hog gastric mucin (American Laboratories Incorporated). […]
Groups T1 through T4 are used to monitor the strength of the infection actually used in this experiment. […] These groups are observed for seven days, mortalities are recorded and used to determine the number of challenge LD50's (within ten-fold limits) present in the standard inoculum used to infect medicated groups of animals.
Groups T5 through T9 are infected intraperitoneally with the standard inoculum. […] The animals are observed for seven days and mortalities are recorded. […]
CD50's (the total dose, in mg./kg., required to cure half the animals) are calculated by standard statistical methods and are reported with 95 percent confidence limits where these are obtainable or annotated with PS (poor slope) where they are not. […]

[3] = S. aureus (S) intraperitoneal infection in female Swiss albino mice, route I.V., observed seven days

| Compound | CD50 (curative dose50, total dose required to cure half the animals) [1, 3] | CD50 (curative dose50, total dose required to cure half the animals) ([1]; S. aureus (S) intraperitoneal infection in female Swiss albino mice, route S.C., observed seven days) | CD50 (curative dose50, total dose required to cure half the animals) [2] [mg/kg] | Percent Surviving Mice With Varying Drug Dose ([1]; S. aureus (S) infection in mice, route I.V., dose of this cell not printed as text) [%] | CD50 (curative dose50, total dose required to cure half the animals) ([1]; S. aureus (SC) intraperitoneal infection in female Swiss albino mice, route cell is a drawing (not readable)) |
| --- | --- | --- | --- | --- | --- |
| O--demethylristocetin aglycone [Compound 3] | 9.3 (5.9-17.3) mg./kg. | – | – | – | – |
| Ristocetin [Compound 1] | 4.1 mg./kg. and 6.6 mg./kg. and 5.6 (4.2-7.5) mg./kg. and 6 mg./kg. | 3.7 (2.4-5.7) mg./kg. | 50 | – | – |
| COC(=O)[C@H]1NC(=O)[C@H]2NC(=O)[C@H](NC(=O)[C@@H]3NC(=O)[C@H]4NC(=O)[C@H](NC(=O)[C@H](N)c5ccc(O)c(c5)Oc5cc4cc(O)c5C)[C@H](O)c4ccc(cc4)Oc4cc3cc(c4O)Oc3ccc(cc3)[C@H]2O)c2ccc(O)c(c2)-c2c(O)cc(O)cc21 [Compound 2, Ristocetin aglycone] | – | – | 50 | 90 | 2.7 (1.8-4.1) mg./kg. |
